# Values quoted from earlier work, collected in patent publication US20040019096A1, “Novel formulations of carvedilol” (priority 2003, published 2004).
# Conditions: immediate release formulation
structure (smiles),measurement,setting,value
COc1ccccc1OCCNCC(O)COc1cccc2[nH]c3ccccc3c12 (centres unmarked) [carvedilol],absorption following oral administration,,rapidly and extensively absorbed
same,terminal elimination half-life,oral administration,7 to 10 h
